{"source": "patent US9527859B2", "about": "“Amidopyridine derivative and use thereof” (Mitsubishi Tanabe Pharma Corporation, priority 2012, dated 2016)", "test_system": "production of IL-17 in mouse splenocytes stimulated by recombinant mouse interleukin-23", "assay": "Production of IL-17 induced when mouse splenocytes were stimulated by rm-IL-23 (ELISA)", "type": "cell-based", "conditions": "Splenocyte, inhibition of IL-17 production, rm-IL-23 1 nmol/L, 72 hours", "procedure": "Effect on Production of IL-17 Induced when Mouse Splenocytes were Stimulated by Recombinant Mouse Interleukin-23 (rm-IL-23)\nRPMI1640 media (Sigma-Aldrich) were used as a medium, to which 50 units/mL penicillin G potassium/50 μg/mL streptomycin (Gibco) and […] 2-mercaptoethanol (Sigma-Aldrich) were added, and then thereto was added 10% of fetal calf serum (FCS; Cell Culture Technology) which was treated at 56° C. for 30 minutes to be inactivated, and the mixture was used in the Test. The test compound was dissolved in dimethylsulfoxide and then diluted with 10% FCS-containing RPMI1640 medium to a desired concentration to be used. The spleens were aseptically taken out from 6 to 7 week-old male DBA/1J mice (Charles River Japan, Inc.) and a single cell suspension of splenocytes was prepared, which was hemolyzed by hypotonic treatment with a mixed solution of 0.83% aqueous solution of ammonium chloride and Tris-HCl buffer of pH 7.65 (9:1). A cell suspension prepared by using 10% FCS-containing RPMI1640 medium was added to a flat-bottomed 96 well microtestplate (Coaster) at 2×10^5 cells/well. Thereto were added test compounds and rm-IL-23 (R&D systems) were diluted with a medium to 1 to 1,000 nmol/L and 1 nmol/L of the final concentration, respectively, and the mixture was cultured at 37° C., 5% carbon dioxide and 95% air for 72 hours. After completion of the culture, culture supernatant was sampled and production amounts of IL-17 therein were determined by ELISA method. After sampling the supernatant, WST-8 (Seikagaku Corporation) was added at 10 μl/well and cultured at 37° C., 5% carbon dioxide and 95% air for 4 hours. Then, absorbance (O.D.: Optical Density) at 450 nm was measured by a microplate reader and the value was adopted as an index of cell survivability. An inhibition rate was calculated according to the following formula on the basis of an average of production amounts of IL-17 and O.D. values of the well containing a test compound of each concentration. Inhibition (%)=(1−(Average value of well with addition of test compound)/(Average value of well without addition of test compound))×100\nBased on the dose-response curve obtained by plotting the inhibition rate in the longitudinal axis and the concentration in the horizontal axis, the concentration of the compound which inhibits the level to 50% of the value of the control group (IC50) (nmol/L) was determined by linear regression analysis."}
{"compound": "Cc1c(C(=O)Nc2cnc(N3CCC(O)CC3)c(C3CC3)c2)cnn1-c1ccc(Cl)cc1Cl", "note": "[Example 9, N-[5-cyclopropyl-6-(4-hydroxypiperidin-1-yl)pyridin-3-yl]-1-(2,4-dichlorophenyl)-5-methyl-1H-pyrazole-4-carboxamide]", "values": [{"measurement": "IC50", "value": 331, "unit": "nM"}]}
{"compound": "Cc1cc(NC(=O)c2cnn(-c3ccc(C(F)(F)F)cc3)c2C)cnc1N1CCC(O)CC1", "note": "[Example 15, N-[6-(4-hydroxypiperidin-1-yl)-5-methylpyridin-3-yl]-5-methyl-1-[4-(trifluoromethyl)phenyl]-1H-pyrazole-4-carboxamide]", "values": [{"measurement": "IC50", "value": 293, "unit": "nM"}]}
{"compound": "COC1CCN(c2ncc(NC(=O)c3cnn(-c4ccc(Cl)cc4)c3C)cc2C)CC1", "note": "[Example 16, 1-(4-chlorophenyl)-N-[6-(4-methoxypiperidin-1-yl)-5-methylpyridin-3-yl]-5-methyl-1H-pyrazole-4-carboxamide]", "values": [{"measurement": "IC50", "value": 264, "unit": "nM"}]}
{"compound": "CC(=O)OC1CCN(c2ncc(NC(=O)c3cnn(-c4ccc(Cl)cc4)c3C)cc2C#N)CC1", "note": "[Example 19, acetic acid (1-{5-[1-(4-chlorophenyl)-5-methyl-1H-pyrazole-4-carboxamide]-3-cyanopyridin-2-yl}piperidin-4-yl)ester]", "values": [{"measurement": "IC50", "value": 213, "unit": "nM"}]}
{"compound": "N#Cc1cc(NC(=O)c2cnn(-c3ccc(Cl)cc3)c2C2CC2)cnc1N1CCC(CCO)CC1", "note": "[Example 22, 1-(4-chlorophenyl)-N-{5-cyano-6-[4-(2-hydroxyethyl)piperidin-1-yl]pyridin-3-yl}-5-cyclopropyl-1H-pyrazole-4-carboxamide]", "values": [{"measurement": "IC50", "value": 194, "unit": "nM"}]}
{"compound": "Cc1c(C(=O)Nc2cnc(N3CCC(O)CC3)c(C#N)c2)cnn1-c1ccc(C(C)(C)C)cc1", "note": "[Example 23, 1-(4-tert-butylphenyl)-N-[5-cyano-6-(4-hydroxypiperidin-1-yl)pyridin-3-yl]-5-methyl-1H-pyrazole-4-carboxamide]", "values": [{"measurement": "IC50", "value": 193, "unit": "nM"}]}
{"compound": "Cc1cc(NC(=O)c2ccn(-c3ccc(C#N)cn3)c2)cnc1N1CCC(C(C)(C)F)CC1", "note": "[Example 24, 1-(5-cyanopyridin-2-yl)-N-{6-[4-(1-fluoro-1-methylethyl)piperidin-1-yl]-5-methylpyridin-3-yl}-1H-pyrrole-3-carboxamide]", "values": [{"measurement": "IC50", "value": 180, "unit": "nM"}]}
{"compound": "CC(=O)OCCC1CCN(c2ncc(NC(=O)c3cnn(-c4ccc(F)cc4)c3C)cc2C#N)CC1", "note": "[Example 25, acetic acid [2-(1-{3-cyano-5-[1-(4-fluorophenyl)-5-methyl-1H-pyrazole-4-carboxamide]pyridin-2-yl}piperidin-4-yl)ethyl]ester]", "values": [{"measurement": "IC50", "value": 161, "unit": "nM"}]}
{"compound": "Cc1cc(NC(=O)c2cnn(-c3ccccn3)c2C)cnc1N1CCC(CC(C)(C)O)CC1", "note": "[Example 26, N-{6-[4-(2-hydroxy-2-methylpropyl)piperidin-1-yl]-5-methylpyridin-3-yl}-5-methyl-1-(pyridin-2-yl)-1H-pyrazole-4-carboxamide]", "values": [{"measurement": "IC50", "value": 173, "unit": "nM"}]}
{"compound": "Cc1cc(NC(=O)c2cnn(-c3ccc(F)c(F)c3)c2C)cnc1N1CCC(C(C)O)CC1", "note": "(stereo not shown) [Example 27, 1-(3,4-difluorophenyl)-N-{6-[4-(1-hydroxyethyl)piperidin-1-yl]-5-methylpyridin-3-yl}-5-methyl-1H-pyrazole-4-carboxamide]", "values": [{"measurement": "IC50", "value": 171, "unit": "nM"}]}
{"compound": "Cc1cc(NC(=O)c2cnn(-c3ccc(F)cc3)c2C)cnc1N1CCC(C(C)O)CC1", "note": "(stereo not shown) [Example 28, 1-(4-fluorophenyl)-N-{6-[4-(1-hydroxyethyl)piperidin-1-yl]-5-methylpyridin-3-yl}-5-methyl-1H-pyrazole-4-carboxamide]", "values": [{"measurement": "IC50", "value": 170, "unit": "nM"}]}
{"compound": "Cc1c(C(=O)Nc2cnc(N3CCC(=O)CC3)c(C#N)c2)cnn1-c1ccc(Cl)cc1", "note": "[Example 29, 1-(4-chlorophenyl)-N-[5-cyano-6-(4-oxopiperidin-1-yl)pyridin-3-yl]-5-methyl-1H-pyrazole-4-carboxamide]", "values": [{"measurement": "IC50", "value": 168, "unit": "nM"}]}
{"compound": "Cc1c(C(=O)Nc2cnc(N3CCC(CCO)CC3)c(C#N)c2)cnn1-c1ccc(F)cc1", "note": "[Example 30, N-{5-cyano-6-[4-(2-hydroxyethyl)piperidin-1-yl]pyridin-3-yl}-1-(4-fluorophenyl)-5-methyl-1H-pyrazole-4-carboxamide]", "values": [{"measurement": "IC50", "value": 175, "unit": "nM"}]}
{"compound": "COCCC1CCN(c2ncc(NC(=O)c3cnn(-c4ccc(C(F)(F)F)cn4)c3C)cc2C)CC1", "note": "[Example 31]", "values": [{"measurement": "IC50", "value": 158, "unit": "nM"}]}
{"compound": "Cc1ccc(-n2ncc(C(=O)Nc3cnc(N4CCC(C(C)(C)F)CC4)c(C)c3)c2C)cc1", "note": "[Example 32, N-{6-[4-(1-fluoro-1-methylethyl)piperidin-1-yl]-5-methylpyridin-3-yl}-5-methyl-1-(4-methylphenyl)-1H-pyrazole-4-carboxamide]", "values": [{"measurement": "IC50", "value": 155, "unit": "nM"}]}
{"compound": "COCC1CCN(c2ncc(NC(=O)c3cnn(-c4ccc(C(F)(F)F)cc4)c3C)cc2C)CC1", "note": "[Example 33, N-{6-[4-(1-methoxymethyl)piperidin-1-yl]-5-methylpyridin-3-yl}-5-methyl-1-[4-(trifluoromethyl)phenyl]-1H-pyrazole-4-carboxamide]", "values": [{"measurement": "IC50", "value": 153, "unit": "nM"}]}
{"compound": "Cc1cc(NC(=O)c2cnn(-c3ccc(F)cc3)c2C)cnc1N1CCC(C(C)(C)F)CC1", "note": "[Example 34, N-{6-[4-(1-fluoro-1-methylethyl)piperidin-1-yl]-5-methylpyridin-3-yl}-1-(4-fluorophenyl)-5-methyl-1H-pyrazole-4-carboxamide]", "values": [{"measurement": "IC50", "value": 151, "unit": "nM"}]}
{"compound": "COc1ccc(-n2ncc(C(=O)Nc3cnc(N4CCC(C(C)(C)F)CC4)c(C)c3)c2C)cc1", "note": "[Example 35, N-{6-[4-(1-fluoro-1-methylethyl)piperidin-1-yl]-5-methylpyridin-3-yl}-1-(4-methoxyphenyl)-5-methyl-1H-pyrazole-4-carboxamide]", "values": [{"measurement": "IC50", "value": 150, "unit": "nM"}]}
{"compound": "Cc1c(C(=O)Nc2cnc(N3CCC(O)CC3)c(Cl)c2)cnn1-c1ccc(Cl)cc1", "note": "[Example 36, N-[5-chloro-6-(4-hydroxypiperidin-1-yl)pyridin-3-yl]-1-(4-chlorophenyl)-5-methyl-1H-pyrazole-4-carboxamide]", "values": [{"measurement": "IC50", "value": 142, "unit": "nM"}]}
{"compound": "N#Cc1cc(NC(=O)c2ccn(-c3ccc(F)cc3)c2)cnc1N1CCC(CCO)CC1", "note": "[Example 37, N-{5-cyano-6-[4-(2-hydroxyethyl)piperidin-1-yl]pyridin-3-yl}-1-(4-fluorophenyl)-1H-pyrrole-3-carboxamide]", "values": [{"measurement": "IC50", "value": 140, "unit": "nM"}]}
{"compound": "Cc1cc(NC(=O)c2cnn(-c3ccc(Cl)cn3)c2C)cnc1N1CCC(C(C)(C)F)CC1", "note": "[Example 38, 1-(5-chloropyridin-2-yl)-N-{6-[4-(1-fluoro-1-methylethyl)piperidin-1-yl]-5-methylpyridin-3-yl}-5-methyl-1H-pyrazole-4-carboxamide]", "values": [{"measurement": "IC50", "value": 140, "unit": "nM"}]}
{"compound": "CC(=O)OCCC1CCN(c2ncc(NC(=O)c3cnn(-c4ccc(Cl)cc4)c3C)cc2C#N)CC1", "note": "[Example 40, acetic acid [2-(1-{5-[1-(4-chlorophenyl)-5-methyl-1H-pyrazole-4-carboxamide]-3-cyanopyridin-2-yl}piperidin-4-yl)ethyl]ester]", "values": [{"measurement": "IC50", "value": 116, "unit": "nM"}]}
{"compound": "Cc1cc(NC(=O)c2cnn(-c3ccc(Cl)cc3)c2C)cnc1N1CCC(C(C)(C)F)CC1", "note": "[Example 41, 1-(4-chlorophenyl)-N-{6-[4-(1-fluoro-1-methylethyl)piperidin-1-yl]-5-methylpyridin-3-yl}-5-methyl-1H-pyrazole-4-carboxamide]", "values": [{"measurement": "IC50", "value": 112, "unit": "nM"}]}
{"compound": "Cc1c(C(=O)Nc2cnc(N3CCC(CCO)CC3)c(C3CC3)c2)cnn1-c1ccc(Cl)cc1", "note": "[Example 42, 1-(4-chlorophenyl)-N-{5-cyclopropyl-6-[4-(2-hydroxyethyl)piperidin-1-yl]pyridin-3-yl}-5-methyl-1H-pyrazole-4-carboxamide]", "values": [{"measurement": "IC50", "value": 106, "unit": "nM"}]}
{"compound": "Cc1cc(NC(=O)c2ccn(-c3ccc(C#N)cn3)c2)cnc1N1CCC(C(C)(C)O)CC1", "note": "[Example 46, 1-(5-cyanopyridin-2-yl)-N-{6-[4-(1-hydroxy-1-methylethyl)piperidin-1-yl]-5-methylpyridin-3-yl}-1H-pyrrole-3-carboxamide]", "values": [{"measurement": "IC50", "value": 60.8, "unit": "nM"}]}
{"compound": "Cc1cc(NC(=O)c2cnn(-c3ncc(Cl)cc3Cl)c2C)cnc1N1CCC(C(C)(C)F)CC1", "note": "[Example 48, 1-(3,5-dichloropyridin-2-yl)-N-{6-[4-(1-fluoro-1-methylethyl)piperidin-1-yl]-5-methylpyridin-3-yl}-5-methyl-1H-pyrazole-4-carboxamide]", "values": [{"measurement": "IC50", "value": 56.4, "unit": "nM"}]}
{"compound": "Cc1cc(NC(=O)c2cnn(-c3ccccc3)c2C)cnc1N1CCC(CC(C)(C)O)CC1", "note": "[Example 50, N-{6-[4-(2-hydroxy-2-methylpropyl)piperidin-1-yl]-5-methylpyridin-3-yl}-5-methyl-1-phenyl-1H-pyrazole-4-carboxamide]", "values": [{"measurement": "IC50", "value": 54.1, "unit": "nM"}]}
{"compound": "Cc1c(C(=O)Nc2cnc(N3CCC(CCO)CC3)c(C#N)c2)cnn1-c1ccc(Cl)cc1", "note": "[Example 51, 1-(4-chlorophenyl)-N-{5-cyano-6-[4-(2-hydroxyethyl)piperidin-1-yl]pyridin-3-yl}-5-methyl-1H-pyrazole-4-carboxamide]", "values": [{"measurement": "IC50", "value": 53.5, "unit": "nM"}]}
